# Measurements taken from patent US12371428B2 (Exelixis, Inc., priority 2019, dated 2025).
# Where two headings read alike, the source gives them in different places.
# Assays:
# [1] = target: Human MET (residues 956-1390) (Homo sapiens (Human), UniProt P08581); assay: Human Met kinase assay, HTRF KinEase (Example D-2); type: biochemical; details: read-out: c-Met IC50
# In short: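 MET kinase domain (956-1390), 0.1 ng/well, in buffer with 5 mM MgCl2, 1 mM DTT and 1 mM MnCl2, phosphorylated a biotinylated peptide at ATP Km for 40 min at RT; 10 concentrations, 3% DMSO final. EDTA-stopped HTRF read after 60 min; IC50 from a 4-parameter logistic fit.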
# [2] = target: Met (phospho-Met, HGF-stimulated PC-3 prostate cancer cells) (Homo sapiens (Human), UniProt P08581); assay: Met autophosphorylation ELISA in PC-3 cells (Example F); type: cell-based; details: cellular activity; Met autophosphorylation ELISA in PC-3 cells; read-out: c-Met IC50
# Met (phospho-Met, HGF-stimulated PC-3 prostate cancer cells), sequence (P08581 25-1390): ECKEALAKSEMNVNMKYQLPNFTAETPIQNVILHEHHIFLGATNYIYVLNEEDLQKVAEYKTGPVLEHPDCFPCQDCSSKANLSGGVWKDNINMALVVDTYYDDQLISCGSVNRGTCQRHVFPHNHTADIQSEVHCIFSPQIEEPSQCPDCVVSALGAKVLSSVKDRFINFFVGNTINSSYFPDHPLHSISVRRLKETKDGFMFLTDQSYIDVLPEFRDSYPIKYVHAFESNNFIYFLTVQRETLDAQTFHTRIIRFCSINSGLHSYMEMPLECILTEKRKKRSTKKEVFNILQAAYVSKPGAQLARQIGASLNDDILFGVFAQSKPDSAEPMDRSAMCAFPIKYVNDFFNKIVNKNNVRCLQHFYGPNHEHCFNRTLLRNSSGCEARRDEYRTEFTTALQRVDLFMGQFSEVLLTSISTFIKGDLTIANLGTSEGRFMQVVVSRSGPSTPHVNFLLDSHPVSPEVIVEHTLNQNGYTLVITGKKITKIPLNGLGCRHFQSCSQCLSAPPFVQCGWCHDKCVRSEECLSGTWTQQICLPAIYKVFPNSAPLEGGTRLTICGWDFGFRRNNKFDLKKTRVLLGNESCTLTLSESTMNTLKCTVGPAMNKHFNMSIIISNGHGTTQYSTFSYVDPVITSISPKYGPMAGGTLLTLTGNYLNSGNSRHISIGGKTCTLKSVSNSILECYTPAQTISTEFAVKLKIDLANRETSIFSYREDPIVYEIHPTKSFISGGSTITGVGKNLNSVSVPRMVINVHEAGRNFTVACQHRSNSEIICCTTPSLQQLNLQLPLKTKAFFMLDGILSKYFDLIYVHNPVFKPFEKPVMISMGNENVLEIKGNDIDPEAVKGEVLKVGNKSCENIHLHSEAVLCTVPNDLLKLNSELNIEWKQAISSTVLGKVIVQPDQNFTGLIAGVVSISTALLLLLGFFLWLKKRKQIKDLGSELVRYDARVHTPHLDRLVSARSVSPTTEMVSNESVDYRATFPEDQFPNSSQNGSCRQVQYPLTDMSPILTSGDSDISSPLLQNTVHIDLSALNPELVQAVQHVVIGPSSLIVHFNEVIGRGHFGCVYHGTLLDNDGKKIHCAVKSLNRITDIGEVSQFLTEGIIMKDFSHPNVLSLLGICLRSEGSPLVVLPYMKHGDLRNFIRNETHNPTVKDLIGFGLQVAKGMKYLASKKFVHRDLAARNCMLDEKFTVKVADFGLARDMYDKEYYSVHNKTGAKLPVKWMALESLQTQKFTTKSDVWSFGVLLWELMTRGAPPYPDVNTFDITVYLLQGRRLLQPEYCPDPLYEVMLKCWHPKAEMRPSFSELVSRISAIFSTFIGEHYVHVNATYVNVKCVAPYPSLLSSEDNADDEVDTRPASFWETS
# In short: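 Compounds were tested on HGF-stimulated PC-3 cells. After 24 h culture and 3 h serum starvation, cells got compound for 1 h and 100 ng/mL HGF for 10 min, and Met tyrosine phosphorylation was measured by ELISA.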
# [3] = protocol of Example D-2 (other compounds)
# Human MET (residues 956-1390), sequence (P08581 956-1390): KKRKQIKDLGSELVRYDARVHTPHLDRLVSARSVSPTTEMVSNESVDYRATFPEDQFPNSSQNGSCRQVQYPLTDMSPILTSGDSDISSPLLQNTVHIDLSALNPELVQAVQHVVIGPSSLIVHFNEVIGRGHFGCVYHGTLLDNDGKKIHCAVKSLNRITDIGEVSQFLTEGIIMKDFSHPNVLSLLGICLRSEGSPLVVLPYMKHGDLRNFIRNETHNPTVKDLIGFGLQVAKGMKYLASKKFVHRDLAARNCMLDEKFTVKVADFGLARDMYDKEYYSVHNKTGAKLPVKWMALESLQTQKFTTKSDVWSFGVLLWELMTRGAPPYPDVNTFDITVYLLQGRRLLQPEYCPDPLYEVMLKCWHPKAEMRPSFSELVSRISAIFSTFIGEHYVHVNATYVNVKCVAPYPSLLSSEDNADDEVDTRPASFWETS
SMILES,"IC50 [1, 3]",IC50 [2],IC50 ([1]; protocol of Example D-2)
"COc1cnc2c(Oc3ccc(NC(=O)c4cn(C)c(C)c(-c5ccc(F)cc5)c4=O)cc3F)ccnc2c1 [Compound 156, N-[3-Fluoro-4-[(7-methoxy-1,5-naphthyridin-4-yl)oxy]phenyl]-5-(4-fluorophenyl)-1,6-dimethyl-4-oxopyridine-3-carboxamide]",< 100 nM,< 100 nM,
"COc1cc2nccc(Oc3ccc(NC(=O)c4cn(CCN5CCOCC5)cc(-c5ccc(F)cc5)c4=O)cc3F)c2nc1OC [Compound 157, N-[4-[(6,7-Dimethoxy-1,5-naphthyridin-4-yl)oxy]-3-fluorophenyl]-5-(4-fluorophenyl)-1-(2-morpholin-4-ylethyl)-4-oxopyridine-3-carboxamide]",< 100 nM,< 100 nM,
"Cc1c(-c2ccc(F)cc2)c(=O)c(C(=O)Nc2ccc(Oc3ccnc4cc(F)cnc34)c(F)c2)cn1C(C)C [Compound 162, N-[3-Fluoro-4-[(7-fluoro-1,5-naphthyridin-4-yl)oxy]phenyl]-5-(4-fluorophenyl)-6-methyl-4-oxo-1-propan-2-ylpyridine-3-carboxamide]",< 100 nM,100 to 300 nM,
"CCn1cc(C(=O)Nc2ccc(Oc3ccnc4cc(OC)cnc34)cc2)c(=O)c(-c2ccc(F)cc2)c1C [Compound 163, 1-Ethyl-5-(4-fluorophenyl)-N-[4-[(7-methoxy-1,5-naphthyridin-4-yl)oxy]phenyl]-6-methyl-4-oxopyridine-3-carboxamide]",< 100 nM,< 100 nM,
"CCn1cc(C(=O)Nc2ccc(Oc3ccnc4cc(OC)cnc34)c(F)c2)c(=O)c(-c2ccc(F)cc2)c1C [Compound 164, 1-Ethyl-N-[3-fluoro-4-[(7-methoxy-1,5-naphthyridin-4-yl)oxy]phenyl]-5-(4-fluorophenyl)-6-methyl-4-oxopyridine-3-carboxamide]",< 100 nM,< 100 nM,
"COc1cnc2c(Oc3ccc(NC(=O)c4cn(C(C)(C)C)c(C)c(-c5ccc(F)cc5)c4=O)cc3F)ccnc2c1 [Compound 166, 1-tert-Butyl-N-[3-fluoro-4-[(7-methoxy-1,5-naphthyridin-4-yl)oxy]phenyl]-5-(4-fluorophenyl)-6-methyl-4-oxopyridine-3-carboxamide]",< 100 nM,< 100 nM,
"CCn1cc(C(=O)Nc2ccc(Oc3ccnc4cc(OC)c(OC)nc34)cc2)c(=O)c(-c2ccc(F)cc2)c1 [Compound 167, N-[4-[(6,7-Dimethoxy-1,5-naphthyridin-4-yl)oxy]phenyl]-1-ethyl-5-(4-fluorophenyl)-4-oxopyridine-3-carboxamide]",< 100 nM,< 100 nM,
"CCn1cc(C(=O)Nc2ccc(Oc3ccnc4cc(OC)c(OC)nc34)cc2)c(=O)c(-c2ccc(F)cc2)c1C [Compound 168, N-[4-[(6,7-Dimethoxy-1,5-naphthyridin-4-yl)oxy]phenyl]-1-ethyl-5-(4-fluorophenyl)-6-methyl-4-oxopyridine-3-carboxamide]",< 100 nM,< 100 nM,
"CCn1cc(C(=O)Nc2ccc(Oc3ccnc4cc(OC)cnc34)cc2)c(=O)c(-c2ccc(F)cc2)c1 [Compound 169, 1-Ethyl-5-(4-fluorophenyl)-N-[4-[(7-methoxy-1,5-naphthyridin-4-yl)oxy]phenyl]-4-oxopyridine-3-carboxamide]",< 100 nM,< 100 nM,
"CCn1cc(C(=O)Nc2ccc(Oc3ccnc4cc(OC)cnc34)c(F)c2)c(=O)c(-c2ccc(F)cc2)c1 [Compound 170, 1-Ethyl-N-[3-fluoro-4-[(7-methoxy-1,5-naphthyridin-4-yl)oxy]phenyl]-5-(4-fluorophenyl)-4-oxopyridine-3-carboxamide]",< 100 nM,< 100 nM,
"COc1cc2nccc(Oc3ccc(NC(=O)c4cnc(C)c(-c5ccc(F)cc5)c4O)cc3)c2cc1OC [Compound 171, N-[4-(6,7-Dimethoxyquinolin-4-yl)oxyphenyl]-5-(4-fluorophenyl)-4-hydroxy-6-methylpyridine-3-carboxamide]",< 100 nM,< 100 nM,
"COc1ccc2nccc(Oc3ccc(NC(=O)c4cnc(C)c(-c5ccc(F)cc5)c4O)cc3F)c2n1 [Compound 172, N-[3-Fluoro-4-[(6-methoxy-1,5-naphthyridin-4-yl)oxy]phenyl]-5-(4-fluorophenyl)-4-hydroxy-6-methylpyridine-3-carboxamide]",< 100 nM,< 100 nM,
"COc1cc2nccc(Oc3ccc(NC(=O)c4c(C)nc(C)c(-c5ccc(F)cc5)c4O)cc3)c2nc1OC [Compound 173, N-[4-[(6,7-Dimethoxy-1,5-naphthyridin-4-yl)oxy]phenyl]-5-(4-fluorophenyl)-4-hydroxy-2,6-dimethylpyridine-3-carboxamide]",< 100 nM,< 100 nM,
"COc1cc2nccc(Oc3ccc(NC(=O)c4cnc(C)c(-c5ccc(F)cc5C)c4O)cc3)c2nc1OC [Compound 174, N-[4-[(6,7-Dimethoxy-1,5-naphthyridin-4-yl)oxy]phenyl]-5-(4-fluoro-2-methylphenyl)-4-hydroxy-6-methylpyridine-3-carboxamide]",< 100 nM,< 100 nM,
"COc1cnc2c(Oc3ccc(NC(=O)c4cnc(C)c(-c5ccc(F)cc5C)c4O)cc3F)ccnc2c1 [Compound 175, N-[3-Fluoro-4-[(7-methoxy-1,5-naphthyridin-4-yl)oxy]phenyl]-5-(4-fluoro-2-methylphenyl)-4-hydroxy-6-methylpyridine-3-carboxamide]",< 100 nM,< 100 nM,
"COc1cc2nccc(Oc3ccc(NC(=O)c4cnc(N)n(-c5ccc(F)cc5)c4=O)cc3F)c2nc1OC [Compound 565, 2-Amino-N-[4-[(6,7-dimethoxy-1,5-naphthyridin-4-yl)oxy]-3-fluorophenyl]-1-(4-fluorophenyl)-6-oxopyrimidine-5-carboxamide]",,< 100 nM,< 100 nM
"CCn1nc(C(=O)Nc2ccc(Oc3ccnc4cc(OC)c(OC)nc34)c(F)c2)c(=O)c(-c2ccc(F)cc2)c1C [Compound 568, N-[4-[(6,7-Dimethoxy-1,5-naphthyridin-4-yl)oxy]-3-fluorophenyl]-1-ethyl-5-(4-fluorophenyl)-6-methyl-4-oxopyridazine-3-carboxamide]",,< 100 nM,< 100 nM
"Cc1ncc(C(=O)Nc2ccc(Oc3ccnc4cc(C(N)=O)cnc34)c(F)c2)c(O)c1-c1ccc(F)cc1 [Compound 577, 8-[2-Fluoro-4-[[5-(4-fluorophenyl)-4-hydroxy-6-methylpyridine-3-carbonyl]amino]phenoxy]-1,5-naphthyridine-3-carboxamide]",,< 100 nM,< 100 nM
"CNC(=O)c1cnc2c(Oc3ccc(NC(=O)c4cnc(C)c(-c5ccc(F)cc5)c4O)cc3F)ccnc2c1 [Compound 578, 8-[2-Fluoro-4-[[5-(4-fluorophenyl)-4-hydroxy-6-methylpyridine-3-carbonyl]amino]phenoxy]-N-methyl-1,5-naphthyridine-3-carboxamide]",,> 300 nM,< 100 nM
"COc1cc2nccc(Oc3ccc(NC(=O)c4cn(C(C)C)c(C)c(-c5ccc(F)cc5)c4=O)cc3F)c2nc1N [Compound 579, N-[4-[(6-Amino-7-methoxy-1,5-naphthyridin-4-yl)oxy]-3-fluorophenyl]-5-(4-fluorophenyl)-6-methyl-4-oxo-1-propan-2-ylpyridine-3-carboxamide]",,< 100 nM,< 100 nM
"COc1cc2nccc(Oc3ccc(NC(=O)c4cn(C(C)C)c(C)c(-c5ccc(F)cc5)c4=O)cc3F)c2nc1O [Compound 580, N-[3-Fluoro-4-[(6-hydroxy-7-methoxy-1,5-naphthyridin-4-yl)oxy]phenyl]-5-(4-fluorophenyl)-6-methyl-4-oxo-1-propan-2-ylpyridine-3-carboxamide]",,< 100 nM,< 100 nM
"COc1cc2nccc(Oc3ccc(NC(=O)c4cn(C(C)C)c(C)c(-c5ccc(F)cc5)c4=O)cc3F)c2nc1NS(C)(=O)=O [Compound 581, N-[3-Fluoro-4-[[6-(methanesulfonamido)-7-methoxy-1,5-naphthyridin-4-yl]oxy]phenyl]-5-(4-fluorophenyl)-6-methyl-4-oxo-1-propan-2-ylpyridine-3-carboxamide]",,100 to 300 nM,< 100 nM
"CNc1nc2c(Oc3ccc(NC(=O)c4cn(C(C)C)c(C)c(-c5ccc(F)cc5)c4=O)cc3F)ccnc2cc1OC [Compound 582, N-[3-Fluoro-4-[[7-methoxy-6-(methylamino)-1,5-naphthyridin-4-yl]oxy]phenyl]-5-(4-fluorophenyl)-6-methyl-4-oxo-1-propan-2-ylpyridine-3-carboxamide]",,< 100 nM,< 100 nM
"COc1cc2nccc(Oc3ccc(NC(=O)c4cnc(C)c(-c5ccc(F)cc5)c4O)cc3F)c2nc1NS(C)(=O)=O [Compound 584, N-[3-Fluoro-4-[[6-(methanesulfonamido)-7-methoxy-1,5-naphthyridin-4-yl]oxy]phenyl]-5-(4-fluorophenyl)-4-hydroxy-6-methylpyridine-3-carboxamide]",,< 100 nM,< 100 nM
"CNc1c(-c2ccc(F)cc2)c(=O)c(C(=O)Nc2ccc(Oc3ccnc4cc(OC)cnc34)c(F)c2)cn1C [Compound 585, N-[3-Fluoro-4-[(7-methoxy-1,5-naphthyridin-4-yl)oxy]phenyl]-5-(4-fluorophenyl)-1-methyl-6-(methylamino)-4-oxopyridine-3-carboxamide]",,< 100 nM,< 100 nM
